Source: patent US20220142941A1, “COMBINATION THERAPEUTIC REGIMENS WITH 1,6-DIBROMO-1,6-DIDEOXY-DULCITOL” (Eleison Pharmaceuticals LLC, priority 2019, published 2022)
Read-outs that look alike come from different tables or passages of the source.

Experiments:
T98 glioma cell line = experiment: Cell Titer-Glo viability, DBD concentration range; type: cell-based, human; settings: 5 and 8 days
Description: (§1) These lines were seeded in triplicate in a 96-wells plate, in a dilution of 500 cells/well. […] FIGS. 1 and 2 show the histogram results of the two used glioma cell lines, T98 and U373. Specifically, the histograms are normalized in percentages, where the non-treated cells have a 100% survival. […] However, a concentration range between 1 and 100 μM was selected and was next tested on twenty patient-derived serum-free cell cultures.

U373 glioma cell line = experiment: Cell Titer-Glo viability, DBD concentration range; type: cell-based, human; settings: 5 and 8 days
Description: as §1

GS102peri = experiment: DBD dose-response IC50, patient derived GSC culture; type: cell-based; settings: Homo sapiens
Description: (§2) To assess the effects of crystalline DBD polymorph on the growth of patient derived GSC's (Glioma serum-free Stem-cell like cultures), dose-response assays were performed on twenty cultures. […] A dose-dependent decrease in viability was found, and the IC50 values of could be calculated using linear regression analysis. Specifically, looking at Table 1, a high variation of different IC50 values is seen in this panel of patient derived GSC's. In addition, no correlation is seen between the MGMT promotor methylation status and the amount of the IC50 value.

GS104peri = experiment: as above; type: cell-based; settings: Homo sapiens
Description: as §2

GS184 = experiment: as above; type: cell-based; settings: Homo sapiens
Description: as §2

GS186core = experiment: as above; type: cell-based; settings: Homo sapiens
Description: as §2

GS186peri = experiment: as above; type: cell-based; settings: Homo sapiens
Description: as §2

GS203 = experiment: as above; type: cell-based; settings: Homo sapiens
Description: as §2

GS224 = experiment: as above; type: cell-based; settings: Homo sapiens
Description: as §2

GS245 = experiment: as above; type: cell-based; settings: Homo sapiens
Description: as §2

GS249 = experiment: as above; type: cell-based; settings: Homo sapiens
Description: as §2

GS257 = experiment: as above; type: cell-based; settings: Homo sapiens
Description: as §2

GS261 = experiment: as above; type: cell-based; settings: Homo sapiens
Description: as §2

GS279core = experiment: as above; type: cell-based; settings: Homo sapiens, 120 h, read-out: IC50 5 d
Description: as §2

GS279peri = experiment: as above; type: cell-based; settings: Homo sapiens
Description: as §2

GS281 = experiment: as above; type: cell-based; settings: Homo sapiens
Description: as §2

GS289 = experiment: as above; type: cell-based; settings: Homo sapiens
Description: as §2

GS304 = experiment: as above; type: cell-based; settings: Homo sapiens
Description: as §2

GS323peri = experiment: as above; type: cell-based; settings: Homo sapiens, 120 h, passage 17, day 5, read-out: IC50 5 d
Description: as §2

GS324core = experiment: as above; type: cell-based; settings: Homo sapiens
Description: as §2

GS359 = experiment: as above; type: cell-based; settings: Homo sapiens
Description: as §2

GS365 = experiment: as above; type: cell-based; settings: Homo sapiens
Description: as §2

[1] = tested on: panel of 20 patient derived cell cultures; experiment: DBD combination treatment, overall result over the panel; type: cell-based, human
Description: Crystalline DBD polymorph treatment was combined with chemotherapy, radiotherapy and targeted inhibitors to determine whether the crystalline DBD polymorph form could: enhance efficacy of the conventional therapies; enhance efficacy when combined with newer ‘targeted’ therapies; or would make (a subset of) cultures more sensitive to this treatment.
Therefore, cultures were treated with: • a.

[2] = reported in the literature; cited from earlier work
[3] = Kellner et al., Nature (1967); cited from earlier work
[4] = 120 h, passage 14, day 5, read-out: IC50 5 d
[5] = passage 14, day 8, read-out: IC50 8 d

IC50 (GS102peri; 120 h, passage 18, day 5, read-out: IC50 5 d): 41.8 µM
IC50 (GS102peri; passage 18, day 8, read-out: IC50 8 d): 11.9 µM
IC50 (GS104peri; 120 h, passage 22, day 5, read-out: IC50 5 d): 3.48 µM
IC50 (GS104peri; passage 22, day 8, read-out: IC50 8 d): 0.57 µM
IC50 (GS184; 120 h, GS184, passage 15, day 5, read-out: IC50 5 d): 18.6 µM
IC50 (GS184; GS184, passage 15, day 8, read-out: IC50 8 d): 1.96 µM
IC50 (GS186core; [4]): 4.56 µM
IC50 (GS186core; [5]): 1.94 µM
IC50 (GS186peri; [4]): 4.24 µM
IC50 (GS186peri; [5]): 2.28 µM
IC50 (GS203; 120 h, GS203, passage 20, day 5, read-out: IC50 5 d): 28.7 µM
IC50 (GS203; GS203, passage 20, day 8, read-out: IC50 8 d): 10.5 µM
IC50 (GS224; 120 h, GS224, passage 17, day 5, read-out: IC50 5 d): 33.3 µM
IC50 (GS224; GS224, passage 17, day 8, read-out: IC50 8 d): 10.9 µM
IC50 (GS245; 120 h, GS245, passage 13, day 5, read-out: IC50 5 d): 6.58 µM
IC50 (GS245; GS245, passage 13, day 8, read-out: IC50 8 d): 3.35 µM
IC50 (GS249; 120 h, GS249, passage 18, day 5, read-out: IC50 5 d): 0.63 µM
IC50 (GS249; GS249, passage 18, day 8, read-out: IC50 8 d): 0.24 µM
IC50 (GS257; 120 h, GS257, passage 13, day 5, read-out: IC50 5 d): 11.9 µM
IC50 (GS257; GS257, passage 13, day 8, read-out: IC50 8 d): 10.2 µM
IC50 (GS261; 120 h, GS261, passage 11, day 5, read-out: IC50 5 d): 3.44 µM
IC50 (GS261; GS261, passage 11, day 8, read-out: IC50 8 d): 1.85 µM
IC50 (GS279core; GS279core (1), passage 13, day 5): 3.6 µM
IC50 (GS279core; GS279core (2), passage 16, day 5): 7.64 µM
IC50 (GS279peri; 120 h, passage 13, day 5, read-out: IC50 5 d): 31.5 µM
IC50 (GS279peri; passage 13, day 8, read-out: IC50 8 d): 8.33 µM
IC50 (GS281; 120 h, GS281, passage 13, day 5, read-out: IC50 5 d): 10.6 µM
IC50 (GS281; GS281, passage 13, day 8, read-out: IC50 8 d): 5.55 µM
IC50 (GS289; 120 h, GS289, passage 13, day 5, read-out: IC50 5 d): 6.88 µM
IC50 (GS289; GS289, passage 13, day 8, read-out: IC50 8 d): 3.22 µM
IC50 (GS304; 120 h, GS304, passage 14, day 5, read-out: IC50 5 d): 106 µM
IC50 (GS304; GS304, passage 14, day 8, read-out: IC50 8 d): 12.2 µM
IC50 (GS323peri): 4.75 µM
IC50 (GS324core; 120 h, passage 16, day 5, read-out: IC50 5 d): 8.96 µM
IC50 (GS324core; passage 16, day 8, read-out: IC50 8 d): 2.98 µM
IC50 (GS359; 120 h, GS359, passage 14, day 5, read-out: IC50 5 d): 11.8 µM
IC50 (GS359; GS359, passage 14, day 8, read-out: IC50 8 d): 7.27 µM
IC50 (GS365; 120 h, GS365, passage 14, day 5, read-out: IC50 5 d): 14.6 µM
IC50 (GS365; GS365, passage 14, day 8, read-out: IC50 8 d): 5.69 µM
Structure (SMILES): O[C@H]([C@H](O)[C@@H](O)CBr)[C@H](O)CBr [DBD, 1,6-dibromo-1,6-dideoxy-dulcitol]
effect on cell viability (percentage of living cells vs non-treated) (T98 glioma cell line; 0.1 μM and 0.3 μM DBD): not effective
effect on cell viability (percentage of living cells vs non-treated) (T98 glioma cell line; 300 μM DBD): not viable
effect on cell viability (percentage of living cells vs non-treated) (U373 glioma cell line; 0.1 μM and 0.3 μM DBD): not effective
effect on cell viability (percentage of living cells vs non-treated) (U373 glioma cell line; 300 μM DBD): not viable
enhancement of the cytotoxic effect ([1]; combined with radiation treatment): 30%
enhancement of the cytotoxic effect ([1]; combined with temozolomide): 50%
solubility [2]: poorly soluble
antitumor effect [3]: selective a vigorous antitumor effect
